Test results as given in patent US20020197261A1, “Therapeutic agent/ligand conjugate compositions, their methods of synthesis and use” (priority 2001, published 2002).

Test system: A431 cells
Test: MTT cytotoxicity, 6-hour pretreatment system
Type: cell-based
Conditions: Homo sapiens, A-431, read-out: IC50 (50% growth inhibition), 6 hours exposure, washing, additional 72 hours incubation
Experimental: One hundred microliter of growth medium suspending 1000-2000 cells per well was plated out in 96-well plates and incubated for 2 days to allow the cells to attach. Various dilutions of the drug or conjugates were added to each well and the plates were incubated for 72 hours at 37° C. Alternatively, a 6-hour pretreatment protocol was used. Cells were exposed to various concentrations of the drug or conjugate for 6 hours at 37 ° C., and then washed twice with the fresh culture medium. The cells were incubated for additional 72 hours. At the end of the incubation period, twenty microliters of MTT solution from Promega Cell Proliferation Assay kit (Madison, Wis.) were added to the wells. The microplates were then incubated for 1 hour at 37° C. Absorbance was measured at 490 nm using a microplate reader (Molecular Devices Corp, Sunnyvale, Calif.). The data reported represent the means of quadruplicate measurement and the standard errors of the mean were less than 15%.

`COc1cccc2c1C(=O)c1c(O)c3c(c(O)c1C2=O)C[C@@](O)(C(=O)CO)C[C@@H]3O[C@H]1C[C@H](N)[C@H](O)[C@H](C)O1` [Adr, Adriamycin] was tested, and the IC50 was 17.7 µM.
